Molecular target: T1, α-xylosidase (Xylsa) (Saccharolobus solfataricus, UniProt Q9P999)
T1 sequence (Q9P999 1-731): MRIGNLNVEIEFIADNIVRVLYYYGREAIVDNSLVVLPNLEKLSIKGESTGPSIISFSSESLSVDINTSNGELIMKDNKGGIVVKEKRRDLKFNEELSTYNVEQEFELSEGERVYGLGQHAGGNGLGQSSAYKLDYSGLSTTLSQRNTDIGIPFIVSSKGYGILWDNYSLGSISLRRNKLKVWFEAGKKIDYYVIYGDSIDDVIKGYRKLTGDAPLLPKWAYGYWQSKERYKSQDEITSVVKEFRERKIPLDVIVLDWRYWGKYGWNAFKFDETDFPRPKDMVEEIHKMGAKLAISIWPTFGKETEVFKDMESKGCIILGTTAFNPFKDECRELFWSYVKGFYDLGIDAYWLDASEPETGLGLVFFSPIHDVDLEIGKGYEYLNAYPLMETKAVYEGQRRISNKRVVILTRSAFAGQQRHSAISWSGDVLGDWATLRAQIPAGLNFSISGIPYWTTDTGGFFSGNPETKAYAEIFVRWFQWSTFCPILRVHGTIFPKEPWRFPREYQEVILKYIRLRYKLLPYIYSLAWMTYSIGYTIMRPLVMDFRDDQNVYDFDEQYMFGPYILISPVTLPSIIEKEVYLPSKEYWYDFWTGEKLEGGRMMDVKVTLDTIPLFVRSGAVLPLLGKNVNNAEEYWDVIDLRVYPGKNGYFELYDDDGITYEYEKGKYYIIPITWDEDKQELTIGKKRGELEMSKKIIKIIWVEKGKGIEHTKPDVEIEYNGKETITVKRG
Experiment: HPLC and ESI-MS of digestion product
Format: biochemical
Conditions: 150 mM sodium acetate pH 5.5, 65 °C, 3 h; second step, gives G3

Cc1cc(=O)oc2cc(O[C@@H]3O[C@H](C(=O)O)[C@@H](O)[C@H](O[C@H]4OC[C@@H](O)[C@H](O[C@@H]5O[C@H](C(=O)O)[C@@H](O)[C@H](O[C@H]6OC[C@@H](O)[C@H](O)[C@H]6O)[C@H]5O)[C@H]4O)[C@H]3O)ccc12 [G4]
HPLC and ESI-MS of digestion product: The product of the first step of G5 digestion was incubated with Xylsa
